These results are taken from patent US11679107B2 (Eisai R&D Management Co., Ltd., priority 2018, dated 2023).

Like-named read-outs stand apart in the source and are kept apart here.

One experiment deals with T1, SF3b complexes (Homo sapiens, UniProt O75533+Q7RTV0).
T1 construct: endogenous in cells; host or cells: Nuclear extracts; A HeLa S3 extract preparation is described for the in vitro splicing assay
In words: Scintillation proximity assay (SPA) with [3H]-labelled pladienolide probe. The experiment is classed as binding. The conditions noted are these: SF3B1 (WT); geometric mean; read-out: SPA-ATS GMean IC50 (nM) SF3B1 (WT). As to the method:
Scintillation Proximity Assay (SPA) with [^3-H]-Labelled Pladienolide Probe
(§1) Batch immobilization of anti-SF3B1 antibody (MBL) to anti-mouse PVT SPA scintillation beads (PerkinElmer) was prepared as follows: for every 2.5 mg of nuclear extracts, 5 μg anti-SF3B1 antibody and 1.5 mg of beads were mixed in 150 μl PBS. The antibody-bead mixture was incubated for 30 min at RT and centrifuged at 18,000 g for 5 min. 150 μl PBS was used to resuspend every 1.5 mg antibody-bead mixture. The beads were suspended and added to the prepared nuclear extracts. The slurry was incubated for 2 h at 4° C. with gentle mixing. The beads were then collected by centrifuging at 18,000 g for 5 min, and washed twice with PBS+0.1% Triton X-100. After a final centrifugation step, every 1.5 mg of beads was suspended with 150 μl of PBS. The SF3b complexes were tested for [^3H]-labelled pladienolide probe binding ([^3H]—PB), synthesized as previously described (Kotake et al., 2007). 100 μl binding reactions were prepared with 50 μl bead slurry and by adding varying concentrations of PB or PB—OH, and after 30 min pre-incubation, 2.5 nM [^3H]—PB was added. The mixture was incubated for 30 min, and luminescence signals were read using a MicroBeta2 Plate Counter (PerkinElmer). Prism 6 (Graphpad) was used for non-linear regression curve fitting of the data. • a. • b. HeLa nuclear extract preparation (for in vitro splicing modulation assay below) • c. HeLa S3 cell pellets were resuspended in hypotonic buffer (10 mM HEPES pH 7.9, 1.5 mM MgCl2, 10 mM KCl, 0.2 mM PMSF, and 0.5 mM DTT) and the suspension was brought up to a total of 5 packed cell volume (PCV). After centrifugation, the supernatant was discarded, and the cells were brought up to 3 PCV with hypotonic buffer and incubated on ice for 10 minutes. Cells were lysed using a dounce homogenizer and then centrifuged. The supernatant was discarded, and the pellet was resuspended with ½ packed nuclear volume (PNV) of low salt buffer (20 mM HEPES pH 7.9, 1.5 mM MgCl2, 20 mM KCl, 0.2 mM EDTA, 25% glycerol, 0.2 mM PMSF, 0.5 mM DTT), followed by ½ PNV of high salt buffer (same as low salt buffer except 1.4 M KCl was used). The nuclei were gently mixed for 30 minutes before centrifuging. The supernatant (nuclear extract) was then dialyzed into storage buffer (20 mM HEPES pH 7.9, 100 mM KCl, 0.2 mM EDTA, 20% glycerol, 0.2 mM PMSF, 0.5 mM DTT). Protein concentration was determined using NanoDrop 8000 UV-Vis spectrophotometer (ThermoFisher Scientific). • d. In vitro splicing assay (IVS)

Experiment [1] concerns Ad2 variant pre-mRNAs spliced in HeLa S3 nuclear extracts. In words: In vitro splicing assay (IVS), RT-qPCR of spliced product. It counts as biochemical. Particulars: for IC50: geometric mean; for Ratio Ad2.1/2.2: ratio of IVS IC50 Ad2.1 to Ad2.2. As to the method:
as §1
All Ad2-derived (Pellizzoni et al., 1998) sequences were cloned into pcDNA3.1(+) vector (Promega) using 5′ EcoRI and 3′ XbaI restriction sites. The plasmids were linearized using XbaI and used as DNA templates in the in vitro transcription reactions. The FtzΔi intron-less plasmid (Luo and Reed, 1999) was linearized using EcoRI. All RNAs were in vitro transcribed and then purified using MEGAScript T7 (Invitrogen) and MegaClear (Invitrogen) kits, respectively. For splicing reactions using Ad2 variant pre-mRNAs, […] reactions were prepared using 8 μg nuclear extracts prepared from HeLa S3, 2 ng pre-mRNA, 0.2 ng FTZΔi, and varying concentrations of exemplary payloads or DMSO. After a 15 minute pre-incubation at 30° C., 1 μL splicing activation buffer (0.5 mM ATP, 20 mM creatine phosphate, 1.6 mM MgCl2) was added, and the reactions were incubated for 90 minutes at 30° C. The reactions were then quenched with 13 μL it DMSO, and 25 nL was used for RT-qPCR. RT-qPCR reactions were prepared using TaqMan RNA-to-CT 1-step kit (Life Technologies), RNA from splicing reactions, Ad2 (forward: […]; reverse: […]; probe: […]) and Ftz (forward: […]; reverse: […]; probe: […]) mRNA primer-probe sets. Prism 6 (Graphpad) was used for non-linear regression curve fitting of the formed spliced product and normalized to the control (DMSO) sample.

In experiment [2] the test system is NCI-H1568 cells (high MCL1). In words: Cell proliferation and viability, CellTiter-Glo, 72 hours. It counts as cell-based. The conditions noted are these: for GI50: geometric mean. The procedure: Cell lines were maintained in RPMI-1640 (ATCC 30-2001) supplemented with 10% fetal bovine serum (FBS). The Panc lines were supplemented in addition with insulin and FBS up to 15% total.
Compounds for assay were prepared as stocks in 90% dimethyl sulfoxide (DMSO), assessed for purity by LC/MS, and serially diluted in DMSO using a low-volume liquid handler (VIAFLO ASSIST and VIAFLO II electronic 16-channel pipette, 0.5-12.5 μL) in an 11-point half-log serial dilution to create a master dose response (MDR) source used for all tests.
Transfer of compounds from the MDR source plate to cell assay-ready plates were accomplished directly by low-energy acoustic transfer (ATS100, EDC Biosystems). After transfer of compounds to the assay plate, the dose-response range experienced by cells was typically 10 μM-100 pM (5 logs), and final DMSO concentration in the assay was 0.1%, uniformly. Each assay plate was self-anchored containing vehicle/DMSO negative controls, medium-only/positive controls, and cidal control dose-responses of bortezomib and staurosporine. Assay-ready plates were heat-sealed and stored at −20° C. until used, no longer than one month.
A DMSO-matched time zero (T0) plate was read and then all other plates were incubated at 37° C. with 5% CO2 and 95% relative humidity until the end of assay. Cell proliferation and viability assays were performed 72 hours post-treatment depending on cell growth where at least one doubling would have occurred.
Assessment of viability and proliferation was by measurement of cell ATP content using CellTiter-Glo® Luminescent Cell Viability Assay reagent (Promega) according to the manufacturer's instructions (CellTiter-Glo® Luminescent Cell Viability Assay Technical Bulletin Instructions for Use of Product(s) G7570, G7571, G7572, G7573 Literature #TB288, Revised March 2015), using a microtiter plate reader (Envision, PE).
Cell proliferation was evaluated using the time zero (T0) signal as the positive control and the within-plate vehicle wells (DMSO) as the negative control. Data was converted to percent inhibition and falls into the range from −100% to 100% of growth where −100% equals a cidal response and 100% equals uninhibited or maximal growth. Cell growth at or near 0% is considered a static response.

Setting [3] is: Ad2.1 pre-mRNA substrate, read-out: qPCR-IVS-ATS GMean IC50 (nM) Ad2.1.
The mark [4] stands for this setting: Ad2.2 pre-mRNA substrate, read-out: qPCR-IVS-ATS GMean IC50 (nM) Ad2.2.
Setting [5] is: 72 h, NCIH1568.1, -100% = cidal, 0% = static, 100% = uninhibited growth.
Setting [6] is: NCI-H1568, read-out: CTGlo-ATS GMean GI50 (nM) 72 h NCIH1568.1, 72 h, NCIH1568.1.
The mark [7] stands for this setting: NCI-H1568, 72 h, read-out: CTGlo-ATS GMean GI50 (nM) 72 h NCIH1568.1, 72 h, NCIH1568.1.
[8] abbreviates: NCI-H1568, 72 h, read-out: CTGlo-ATS GMean GI50 (nM) 72 h NCIH1568.1, NCIH1568.1 cells, 72 h.
The mark [9] stands for this setting: NCIH1568.1 cells, 72 h, −100% cidal, 0% static, 100% maximal growth.
Where [10] appears, read: NCI-H1568, read-out: CTGlo-ATS GMean GI50 (nM) 72 h NCIH1568.1, NCIH1568.1 cells, 72 h.

Consider `COCC(=O)N[C@H]1CCN(c2cc(F)cc(/C=C(\C)[C@H]3OC(=O)CC(O)CCC(C)[C@@H](OC(=O)N4CCN(C)CC4)/C=C/[C@@H]3C)c2)C1` (stereo in doubt) [Compound 218, [(2S,3S,4E,6R,7R,10S)-2-[(E)-1-[3-fluoro-5-[(3S)-3-[(2-methoxyacetyl)amino]pyrrolidin-1-yl]phenyl]prop-1-en-2-yl]-10-hydroxy-3,7-dimethyl-12-oxo-1-oxacyclododec-4-en-6-yl] 4-methylpiperazine-1-carboxylate], for which the half-maximal inhibitory concentration (IC50) on SF3b complexes stood at 2.79 nM; in experiment [1] (setting [3]), 30.5 nM; in experiment [1] (setting [4]) it was 5.62 nM. Besides, in experiment [1], the “Ratio Ad2.1/2.2” value was 5.425. The “CTGlo-ATS Mean MinResponse % 72 h NCIH1568.1” value in experiment [2] (setting [5]) is reported as −75.420%. Moreover, the GI50 in experiment [2] (setting [6]) was determined as 6.2 nM.
`COc1ccc(CNC(=O)O[C@H]2/C=C/C(C)C(/C(C)=C/c3cc(F)cc(N4CCN(C(=O)Cn5cccn5)CC4)c3)OC(=O)CC(O)CC[C@@H]2C)cc1` (stereo in doubt) [Compound 226, [(2R,3R,4E,6R,7S,10S)-2-[(E)-1-[3-fluoro-5-[4-(2-pyrazol-1-ylacetyl)piperazin-1-yl]phenyl]prop-1-en-2-yl]-10-hydroxy-3,7-dimethyl-12-oxo-1-oxacyclododec-4-en-6-yl] N-[(4-methoxyphenyl)methyl]carbamate]: the concentration for half-maximal inhibition (IC50) at SF3b complexes was 1.17 nM; in experiment [1] (setting [3]) it was 8.74 nM; in experiment [1] (setting [4]) it was 102 nM. Further, the “Ratio Ad2.1/2.2” value in experiment [1] was determined as 0.086. In experiment [2] (setting [5]), the “CTGlo-ATS Mean MinResponse % 72 h NCIH1568.1” value was −64.963%. The GI50 in experiment [2] (setting [6]) came to 34.7 nM.
For the compound `C/C(=C\c1cc(F)cc(N2CCN(C(=O)Cn3cccn3)CC2)c1)C1OC(=O)CC(O)CC[C@H](C)[C@@H](OC(=O)NC(C)CO)/C=C/C1C` (stereo in doubt) [Compound 229, [(2R,3R,4E,6R,7S,10S)-2-[(E)-1-[3-fluoro-5-[4-(2-pyrazol-1-ylacetyl)piperazin-1-yl]phenyl]prop-1-en-2-yl]-10-hydroxy-3,7-dimethyl-12-oxo-1-oxacyclododec-4-en-6-yl] N-[(2S)-1-hydroxypropan-2-yl]carbamate], the 50% inhibitory concentration (IC50) on SF3b complexes was found to be 17.1 nM; in experiment [1] (setting [3]), 329 nM; in experiment [1] (setting [4]), 12.2 nM. In experiment [1], the “Ratio Ad2.1/2.2” value was 27.000. For the same compound, in experiment [2] (setting [5]), the “CTGlo-ATS Mean MinResponse % 72 h NCIH1568.1” value is −65.653%. Further, in experiment [2] (setting [7]), the GI50 was found to be 13.4 nM.
Regarding `C/C(=C\c1cc(F)cc(N2CCCNC2=O)c1)[C@H]1OC(=O)C[C@H](O)CC[C@H](C)[C@@H](OC(=O)N2CCN(C)CC2)/C=C/[C@@H]1C` [Compound 79], the IC50 at SF3b complexes stood at 2.14 nM; in experiment [1] (setting [3]), 18 nM; in experiment [1] (setting [4]), 12.3 nM. Also, the GI50 in experiment [2] (setting [8]) was found to be 4.01 nM. Besides, the “CTGlo-ATS Mean MinResponse % 72 h NCIH1568.1” value in experiment [2] (setting [9]) is −72.802%.
In the same order, the values of `C/C(=C\c1cc(F)cc(N2CCCN(CC3CC3)C2=O)c1)[C@H]1OC(=O)C[C@H](O)CC[C@H](C)[C@@H](OC(=O)N2CCN(C)CC2)/C=C/[C@@H]1C` [Compound 80] are 1.59 nM, 6.64 nM, 8.57 nM, 2.68 nM and −69.196%.
In the case of `C/C(=C\c1cc(F)cc(N2CCN(C(=O)[C@@H](C)O)CC2)c1)[C@H]1OC(=O)C[C@H](O)CC[C@H](C)[C@@H](OC(=O)N2CCN(C)CC2)/C=C/[C@@H]1C` [Compound 81], the IC50 at SF3b complexes was 2.59 nM; in experiment [1] (setting [3]), 9.07 nM; in experiment [1] (setting [4]) it was 4.95 nM. Besides, the GI50 in experiment [2] (setting [10]) worked out at 2.18 nM. The “CTGlo-ATS Mean MinResponse % 72 h NCIH1568.1” value in experiment [2] (setting [9]) was −83.963%.
As to `C/C(=C\c1cc(F)c2nnn(CC3CCOCC3)c2c1)[C@H]1OC(=O)C[C@H](O)CC[C@H](C)[C@@H](OC(=O)N2CCN(C)CC2)/C=C/[C@@H]1C` [Compound 148], on SF3b complexes, the IC50 turned out to be 2.24 nM. The concentration for 50% growth inhibition (GI50) in experiment [2] (setting [10]) was found to be 1.42 nM. Also, the “CTGlo-ATS Mean MinResponse % 72 h NCIH1568.1” value in experiment [2] (setting [9]) is given as −85.010%.
Turning to `C/C(=C\c1cc(F)cc(N2CCN(C(=O)Cn3cccn3)CC2)c1)[C@H]1OC(=O)C[C@H](O)CC[C@H](C)[C@@H](OC(=O)N2CC[C@H](N(C)C)C2)/C=C/[C@@H]1C` [Compound 228, [(2S,3S,4E,6R,7S,10R)-2-[(E)-1-[3-fluoro-5-[4-(2-pyrazol-1-ylacetyl)piperazin-1-yl]phenyl]prop-1-en-2-yl]-10-hydroxy-3,7-dimethyl-12-oxo-1-oxacyclododec-4-en-6-yl] (3S)-3-(dimethylamino)pyrrolidine-1-carboxylate], the IC50 at SF3b complexes is 3.96 nM. In addition, in experiment [2] (setting [5]), the “CTGlo-ATS Mean MinResponse % 72 h NCIH1568.1” value is reported as −77.633%. Also, the GI50 in experiment [2] (setting [7]) turned out to be 3.29 nM.
